Data: patent US12071425B2 (Genentech, Inc., priority 2018, dated 2024)
Counter-ions that a name gives are not always drawn.

Molecular target: kinase domain of IRE1 alpha (His-tagged kinase dead construct KR, AA G547-L977, D688N) (Homo sapiens (Human), UniProt O75460, D688N)
Assay: IRE1α TR-FRET competition binding assay
Conditions: competition with Kinase Tracer 236, 0.1 μM; one hour at room temperature
How it was run: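 Compound displacement of an ATP-site fluorescent tracer (0.1 μM final) measured by TR-FRET after 1 h at room temperature. Protein, a His-tagged D688N kinase/RNase construct from Sf9 cells (0.006 μM final), was pre-bound 1 h at 4° C to Eu anti-His antibody (0.002 μM) in pH 7.5 HEPES buffer.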

Sequence of kinase domain of IRE1 alpha (His-tagged kinase dead construct KR, AA G547-L977, D688N) (O75460 547-977 D688N): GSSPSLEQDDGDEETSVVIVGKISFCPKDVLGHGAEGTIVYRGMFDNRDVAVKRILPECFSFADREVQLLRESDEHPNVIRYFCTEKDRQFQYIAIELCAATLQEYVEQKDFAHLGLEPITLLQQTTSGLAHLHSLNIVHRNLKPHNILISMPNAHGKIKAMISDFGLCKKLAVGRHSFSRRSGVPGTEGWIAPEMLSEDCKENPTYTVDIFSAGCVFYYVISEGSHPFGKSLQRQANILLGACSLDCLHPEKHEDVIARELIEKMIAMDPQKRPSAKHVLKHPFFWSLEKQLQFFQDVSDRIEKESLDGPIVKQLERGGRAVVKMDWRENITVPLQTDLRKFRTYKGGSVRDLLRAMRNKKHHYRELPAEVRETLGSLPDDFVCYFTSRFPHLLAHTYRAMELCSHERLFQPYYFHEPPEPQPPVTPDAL

SMILES	IC50
O=S(=O)(Cc1ccc(Cl)cc1)Nc1c(F)cc(Oc2ncccc2-c2ccnc(N[C@@H]3CNC[C@@H](F)C3)n2)c(F)c1F [Compound 354, 1-(4-Chlorophenyl)-N-[2,3,6-trifluoro-4-[[3-[2-[[(3S,5S)-5-fluoro-3-piperidyl]amino]pyrimidin-4-yl]-2-pyridyl]oxy]phenyl]methanesulfonamide]	0.2 nM
O=S(=O)(Cc1ccccc1)Nc1c(F)cc(Oc2ncccc2-c2ccnc(CC3CCCNC3)n2)c(F)c1F (single isomer, unassigned) [Compound 198, 1-Phenyl-N-(2,3,6-trifluoro-4-((3-(2-(3-piperidylmethyl)pyrimidin-4-yl)-2-pyridyl)oxy)phenyl)methanesulfonamide]	1300 nM
Cc1cc(NS(=O)(=O)Cc2ccccc2)c(F)c(F)c1Oc1ncccc1-c1ccnc(N[C@@H]2CNC[C@H](C)C2)n1 [Compound 177, N-(2,3-difluoro-5-methyl-4-((3-(2-(((3S,5R)-5-methyl-3-piperidyl)amino)pyrimidin-4-yl)-2-pyridyl)oxy)phenyl)-1-phenyl-methanesulfonamide]	4.9 nM
C[C@H](c1ccccc1)S(=O)(=O)Nc1c(F)cc(Oc2ncccc2-c2ccnc(N[C@@H]3CNC[C@@H](F)C3)n2)c(F)c1F (single isomer, unassigned) [Compound 388, (*R)-1-phenyl-N-(2,3,6-trifluoro-4-((3-(2-(((3S,5S)-5-fluoropiperidin-3-yl)amino)pyrimidin-4-yl)pyridin-2-yl)oxy)phenyl)ethane-1-sulfonamide]	0.8 nM
O=S(=O)(Cc1ccc(Cl)cc1)Nc1ccc(Oc2ncccc2-c2ccnc(N[C@H]3CCCNC3)n2)c(F)c1F [Compound 213, (S)-1-(4-chlorophenyl)-N-(2,3-difluoro-4-((3-(2-(piperidin-3-ylamino)pyrimidin-4-yl)pyridin-2-yl)oxy)phenyl)methanesulfonamide]	5.9 nM
O=S(=O)(Cc1ccc(F)cc1)Nc1c(F)cc(Oc2ncccc2-c2ccnc(N[C@@H]3CNC[C@@H](F)C3)n2)c(F)c1F [Compound 372, 1-(4-Fluorophenyl)-N-(2,3,6-trifluoro-4-((3-(2-(((3S,5S)-5-fluoropiperidin-3-yl)amino)pyrimidin-4-yl)pyridin-2-yl)oxy)phenyl)methanesulfonamide]	0.2 nM
O=S(=O)(Nc1c(F)cc(Oc2ncccc2-c2ccnc(N[C@@H]3CNC[C@@H](F)C3)n2)c(F)c1F)N1CCCC1 [Compound 258, N-(2,3,6-Trifluoro-4-((3-(2-(((3S,5S)-5-fluoropiperidin-3-yl)amino)pyrimidin-4-yl)pyridin-2-yl)oxy)phenyl)pyrrolidine-1-sulfonamide]	5.2 nM
Cc1cc(NS(=O)(=O)Cc2ccccc2)cc(F)c1Oc1ncccc1-c1ccnc(N[C@H]2CC[C@H](N)CC2)n1 [Compound 119, N-(4-((3-(2-(((1r,4r)-4-aminocyclohexyl)amino)pyrimidin-4-yl)pyridin-2-yl)oxy)-3-fluoro-5-methylphenyl)-1-phenylmethanesulfonamide hydrochloride]	13 nM
N#Cc1ccccc1CS(=O)(=O)Nc1ccc(Oc2ncccc2-c2ccnc(N[C@H]3CCCNC3)n2)c(F)c1F [Compound 187, (S)-1-(2-cyanophenyl)-N-(2,3-difluoro-4-((3-(2-(piperidin-3-ylamino)pyrimidin-4-yl)pyridin-2-yl)oxy)phenyl)methanesulfonamide]	2.9 nM
Cc1cc(Oc2ncccc2-c2ccnc(N[C@@H]3CNC[C@@](C)(F)C3)n2)c(F)c(F)c1NS(=O)(=O)Cc1ccccc1 [Compound 279, N-(2,3-Difluoro-4-((3-(2-(((3S,5S)-5-fluoro-5-methylpiperidin-3-yl)amino)pyrimidin-4-yl)pyridin-2-yl)oxy)-6-methylphenyl)-1-phenylmethanesulfonamide]	0.23 nM
CC(C)(CC#N)CS(=O)(=O)Nc1ccc(Oc2ncccc2-c2ccnc(N[C@H]3CCCNC3)n2)c(F)c1F [Compound 216, (S)-3-cyano-N-(2,3-difluoro-4-((3-(2-(piperidin-3-ylamino)pyrimidin-4-yl)pyridin-2-yl)oxy)phenyl)-2,2-dimethylpropane-1-sulfonamide]	13 nM
Cc1c(NS(=O)(=O)c2ccccc2Cl)ccc(Oc2ncccc2-c2ccnc(N[C@H]3CCCNC3)n2)c1C [Compound 123, (S)-2-Chloro-N-(2,3-dimethyl-4-((3-(2-(piperidin-3-ylamino)pyrimidin-4-yl)pyridin-2-yl)oxy)phenyl)benzenesulfonamide]	50 nM
O=S(=O)(Cc1ccccc1)Nc1cc(F)c(Oc2ncccc2-c2ccnc(N[C@H]3CCCNC3)n2)c(F)c1F [Compound 156, (S)-1-phenyl-N-(2,3,5-trifluoro-4-((3-(2-(piperidin-3-ylamino)pyrimidin-4-yl)pyridin-2-yl)oxy)phenyl)methanesulfonamide hydrochloride]	4.6 nM
Cc1cc(CS(=O)(=O)Nc2c(F)cc(Oc3ncccc3-c3ccnc(N[C@@H]4CNC[C@@](C)(F)C4)n3)c(F)c2F)no1 [Compound 203, 1-(5-methylisoxazol-3-yl)-N-(2,3,6-trifluoro-4-((3-(2-(((3S,5S)-5-fluoro-5-methylpiperidin-3-yl)amino)pyrimidin-4-yl)pyridin-2-yl)oxy)phenyl)methanesulfonamide]	3.3 nM

The remaining compounds from weak to strong by IC50, led by results:

IC50	SMILES
42 nM	CNCCNc1nccc(-c2cccnc2Oc2ccc(NS(=O)(=O)Cc3ccccc3)c(F)c2F)n1 [Compound 172, N-(2,3-difluoro-4-((3-(2-(2-(methylamino)ethylamino)pyrimidin-4-yl)-2-pyridyl)oxy)phenyl)-1-phenyl-methanesulfonamide]
36 nM	O=C1CC[C@H](Nc2nccc(-c3cccnc3Oc3ccc(NS(=O)(=O)Cc4ccccc4)c(F)c3F)n2)CN1 [Compound 181, (S)-N-(2,3-difluoro-4-((3-(2-((6-oxopiperidin-3-yl)amino)pyrimidin-4-yl)pyridin-2-yl)oxy)phenyl)-1-phenylmethanesulfonamide]
26 nM	O=S(=O)(CCC(F)(F)F)Nc1cc(F)c(Oc2ncccc2-c2ccnc(N[C@H]3CCCNC3)n2)cc1F [Compound 109, (S)-N-(2,5-difluoro-4-((3-(2-(piperidin-3-ylamino)pyrimidin-4-yl)pyridin-2-yl)oxy)phenyl)-3,3,3-trifluoropropane-1-sulfonamide hydrochloride]
10 nM	Cc1cc(NS(=O)(=O)c2ccccc2Cl)cc(F)c1Oc1ncccc1-c1ccnc(N[C@H]2CC[C@H](N)CC2)n1 [Compound 102, N-[4-[[3-[2-[(4-aminocyclohexyl)amino]pyrimidin-4-yl]-2-pyridyl]oxy]-3-fluoro-5-methyl-phenyl]-2-chloro-benzenesulfonamide hydrochloride]
8.6 nM	CN(C)S(=O)(=O)Nc1c(F)cc(Oc2ncccc2-c2ccnc(N[C@@H]3CNC[C@@H](F)C3)n2)c(F)c1F [Compound 266, 4-(2-(4-(Dimethylsulfamoylamino)-2,3,5-trifluoro-phenoxy)-3-pyridyl)-2-(((3S,5S)-5-fluoro-3-piperidyl)amino)pyrimidine]
6.9 nM	C[C@]1(F)CNC[C@@H](Nc2nccc(-c3cccnc3Oc3ccc(NS(=O)(=O)Cc4ccccc4)c(F)c3F)n2)C1 [Compound 162, N-(2,3-difluoro-4-((3-(2-(((3S,5R)-5-fluoro-5-methylpiperidin-3-yl)amino)pyrimidin-4-yl)pyridin-2-yl)oxy)phenyl)-1-phenylmethanesulfonamide]
3.5 nM	Cc1cc(NS(=O)(=O)Cc2ccccc2)c(F)c(F)c1Oc1ncccc1-c1ccnc(N[C@@H]2CNC[C@@H](F)C2)n1 [Compound 178, N-(2,3-difluoro-4-((3-(2-(((3S,5S)-5-fluoro-3-piperidyl)amino)pyrimidin-4-yl)-2-pyridyl)oxy)-5-methyl-phenyl)-1-phenyl-methanesulfonamide]
2.2 nM	O=S(=O)(CCC1CC1)Nc1c(F)cc(Oc2ncccc2-c2ccnc(N[C@@H]3CNC[C@@H](F)C3)n2)c(F)c1F [Compound 267, 2-Cyclopropyl-N-(2,3,6-trifluoro-4-((3-(2-(((3S,5S)-5-fluoropiperidin-3-yl)amino)pyrimidin-4-yl)pyridin-2-yl)oxy)phenyl)ethane-1-sulfonamide]
0.42 nM	CC(C)(F)C1CNCC(Nc2nccc(-c3cccnc3Oc3cc(F)c(NS(=O)(=O)Cc4ccccc4)c(F)c3F)n2)C1 (single isomer, unassigned) [Compound 336, 1-Phenyl-N-(2,3,6-trifluoro-4-((3-(2-((5-(2-fluoropropan-2-yl)piperidin-3-yl)amino)pyrimidin-4-yl)pyridin-2-yl)oxy)phenyl)methanesulfonamide hydrochloride]
0.3 nM	O=S(=O)(Cc1ccncc1)Nc1c(F)cc(Oc2ncccc2-c2ccnc(N[C@@H]3CNC[C@@H](F)C3)n2)c(F)c1F [Compound 359]
0.2 nM	CC(F)C1CNCC(Nc2nccc(-c3cccnc3Oc3cc(F)c(NS(=O)(=O)Cc4ccccc4)c(F)c3F)n2)C1 (single isomer, unassigned) [Compound 348, 1-Phenyl-N-(2,3,6-trifluoro-4-((3-(2-((5-(1-fluoroethyl)piperidin-3-yl)amino)pyrimidin-4-yl)pyridin-2-yl)oxy)phenyl)methanesulfonamide]
0.19 nM	CC(C)(F)C1CNCC(Nc2nccc(-c3cccnc3Oc3cc(F)c(NS(=O)(=O)Cc4ccccc4)c(F)c3F)n2)C1 (stereo not drawn) [Compound 333, 1-Phenyl-N-(2,3,6-trifluoro-4-((3-(2-((5-(2-fluoropropan-2-yl)piperidin-3-yl)amino)pyrimidin-4-yl)pyridin-2-yl)oxy)phenyl)methanesulfonamide hydrochloride]
0.14 nM	CS(=O)(=O)c1ccc(CS(=O)(=O)Nc2c(F)cc(Oc3ncccc3-c3ccnc(N[C@@H]4CNC[C@@H](F)C4)n3)c(F)c2F)cc1 [Compound 312, 1-(4-(Methylsulfonyl)phenyl)-N-(2,3,6-trifluoro-4-((3-(2-(((3S,5S)-5-fluoropiperidin-3-yl)amino)pyrimidin-4-yl)pyridin-2-yl)oxy)phenyl)methanesulfonamide]
